Assay results as given in article PMC6170201 (Xenobiotica; the fate of foreign compounds in biological …, 2010).

Tests used:
[1] = test system: LS180 cells; experiment: Acetaminophen glucuronidation in intact LS180 cells; settings: for effect on acetaminophen glucuronidation: LS180 cells; for inhibition of acetaminophen glucuronidation: initial screen, at the highest concentration tested, intact LS180 cells; for IC50: Homo sapiens, LS180, 24 h, read-out: IC50, acetaminophen glucuronidation; for fold difference in IC50, HLM versus intact LS180 cells: acetaminophen glucuronidation, more potent in LS180 cells
[2] = test system: PKC α; settings: reported value, no reference given; cited from earlier work
[3] = test system: PKC β1; settings: reported value, no reference given; cited from earlier work
[4] = test system: LS180 cells; settings: 250 nM, substrate not clear, ref Basu et al. 2008; cited from earlier work
[5] = test system: PKC; settings: 600 μM, human astrocytoma cells; ref Kurita et al. 2007; cited from earlier work
[6] = target: T1, UGT1A6 (Homo sapiens, UniProt P19224); experiment: Serotonin glucuronidation, UGT1A6-infected Sf9 treated cell lysates
T1 sequence (P19224 27-532): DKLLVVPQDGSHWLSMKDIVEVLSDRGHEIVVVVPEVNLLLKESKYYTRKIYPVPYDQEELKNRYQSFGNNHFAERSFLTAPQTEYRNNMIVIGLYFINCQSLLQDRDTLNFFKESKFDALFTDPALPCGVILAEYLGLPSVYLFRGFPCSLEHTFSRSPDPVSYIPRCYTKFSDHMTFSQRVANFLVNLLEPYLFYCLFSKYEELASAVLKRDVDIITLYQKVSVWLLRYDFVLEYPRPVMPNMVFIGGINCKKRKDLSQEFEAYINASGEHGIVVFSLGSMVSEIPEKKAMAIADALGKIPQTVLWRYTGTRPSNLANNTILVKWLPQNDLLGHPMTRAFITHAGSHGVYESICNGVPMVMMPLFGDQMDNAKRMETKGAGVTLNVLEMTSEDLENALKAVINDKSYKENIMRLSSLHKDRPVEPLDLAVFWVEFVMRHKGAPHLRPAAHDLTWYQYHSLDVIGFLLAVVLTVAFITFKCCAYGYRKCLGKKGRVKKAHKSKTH

[7] = target: T1, UGT1A6; experiment: Acetaminophen glucuronidation, treated intact UGT1A6-infected Sf9 cells
[8] = test system: UGT1A10; settings: UGT1A10-transfected COS-1 cells; ref Basu et al. 2008; cited from earlier work
[9] = test system: LS180 cells; settings: ref Basu et al. 2003; Gutmann et al. 2006; cited from earlier work
[10] = target: T1, UGT1A6; experiment: Serotonin glucuronidation by pooled human liver microsomes
[11] = target: T1, UGT1A6; experiment: Serotonin glucuronidation, treated intact UGT1A6-infected Sf9 cells
[12] = test system: UGT1A1; settings: UGT1A1 expressed in COS-1 cells; ref Basu et al. 2003; Basu et al. 2005; cited from earlier work
[13] = test system: UGT1A10; settings: UGT1A10 expressed in COS-1 cells; ref Basu et al. 2003; Basu et al. 2005; cited from earlier work
[14] = test system: UGT1A7; settings: UGT1A7 expressed in COS-1 cells; ref Basu et al. 2003; Basu et al. 2005; cited from earlier work
[15] = test system: LS180 cell lysates; settings: read-out: IC50, acetaminophen glucuronidation; (untreated) LS180 cell lysates
[16] = test system: human liver microsomes; experiment: Acetaminophen glucuronidation by pooled human liver microsomes; assay type: biochemical; settings: read-out: IC50, acetaminophen glucuronidation; HLM, 10 mM acetaminophen
[17] = test system: HT29; settings: HT29, 24 hr, concentrations up to 10μM; ref Tillman et al. 2003; cited from earlier work
[18] = test system: HCT8; settings: HCT8, 24 hr, concentrations up to 10μM; ref Tillman et al. 2003; cited from earlier work
[19] = test system: SW480 colon adenocarcinoma cells; settings: 50 μM, 12 hr treatment, ref Masur et al. 2001; cited from earlier work
[20] = test system: HCT116; settings: HCT116, 24 hr, concentrations up to 10μM; ref Tillman et al. 2003; cited from earlier work
[21] = concentrations more than 20 times reported selective PKC IC50 values

For `O=C1NC(=O)c2cc(Nc3ccc(F)cc3)c(Nc3ccc(F)cc3)cc21` [CGP-53353], the “effect on acetaminophen glucuronidation” value [1, 21] was “did not show significant inhibitory activity” and the “inhibition of acetaminophen glucuronidation” value [1] was no more than 50%.

With `CN(C)C[C@@H]1CCn2cc(c3ccccc32)C2=C(C(=O)NC2=O)c2cn(c3ccccc23)CCO1` [LY-333531, (S)-13-[(dimethylamino)methyl]-10,11,14,15-tetrahydro-4,9:16, 21-dimetheno-1H, 13H-dibenzo[e,k]pyrrolo[3,4-h][1,4,13]oxadiazacyclohexadecene-1,3(2H)-d ione] the “effect on acetaminophen glucuronidation” value [1, 21] was “did not show significant inhibitory activity” and the “inhibition of acetaminophen glucuronidation” value [1] was no more than 50%.

For `O=C1NC(=O)C(c2cn(CCCn3ccnc3)c3ccccc23)=C1Nc1ccccc1` [PKC-β inhibitor], the “effect on acetaminophen glucuronidation” value [1, 21] was “did not show significant inhibitory activity” and the “inhibition of acetaminophen glucuronidation” value [1] was no more than 50%.

For `CN(C)C[C@H]1CCn2c(c(C3=C(c4cn(C)c5ccccc45)C(=O)NC3=O)c3ccccc32)C1` [Ro 32–0432], the IC50 [2] is listed as […], the IC50 [3] is listed as […] and the “effect on acetaminophen glucuronidation” value [1, 21] is listed as “did not show significant inhibitory activity”. The “inhibition of acetaminophen glucuronidation” value [1] was no more than 50% and the “inhibition of glucuronidation activity” value [4] was 30%.

For `CCCC(CCC)C(=O)O` [Valproic acid, valproic acid], the “effect on acetaminophen glucuronidation” value ([1]; 80 μM and 350 μM) is given as “not inhibitory”, the “inhibition of acetaminophen glucuronidation” value [1] is given as no more than 50% and the “inhibition of PKC” value [5] is given as 40%.

With `COc1c(C[C@@H](C)OC(=O)Oc2ccc(O)cc2)c2c3c(C[C@@H](C)OC(=O)c4ccccc4)c(OC)c(=O)c4c(O)cc(OC)c(c5c(OC)cc(O)c(c1=O)c52)c43` [calphostin-C] the IC50 [6] was greater than 2 µM, the IC50 [7] was 0.83 ± 0.1 µM and the “fold higher IC50 in insect cells versus LS180 cells” value ([7]; acetaminophen glucuronidation) was “about 4 fold”. The “effect on phosphorylation of UGT1A10” value [8] was “dose-dependent decrease”, the IC50 [1] was 0.14 ± 0.03 µM and the “fold difference in IC50, HLM versus intact LS180 cells” value (“fold difference in IC50” for short) [1] was “over 3.5 fold”. The “concentration up to which not toxic in LS180 cells” value [9] was “up to 1 μM”, the IC50 [10] was greater than 2 µM and the IC50 [11] was 0.5 ± 0.1 µM. The “effect on glucuronidation of anthraflavic acid” value [12] was “inhibits”, the “effect on glucuronidation of bilirubin” value [12] was “inhibits” and the “effect on glucuronidation of eugenol” value [13] was “inhibits”. The “effect on glucuronidation of capsaicin” value [14] was “inhibits”.

`COc1cc(/C=C/C(=O)CC(=O)/C=C/c2ccc(O)c(OC)c2)ccc1O` [curcumin, Curcumin] gave an IC50 [6] of 31.6 ± 2.4 µM, an IC50 [7] of 58.9 ± 4.5 µM and an IC50 [1] of 12.1 ± 0.4 µM. For the same compound, the IC50 [10] was 73.9 ± 1 µM, the IC50 [11] was 64.9 ± 7.5 µM and the IC50 [15] was 60.9 ± 12.2 µM.

In the case of `Cc1cc(O)c2c(=O)c3c(O)cc(O)c4c5c(O)cc(O)c6c(=O)c7c(O)cc(C)c8c1c2c(c34)c(c78)c65` [hypericin], the IC50 [6] is reported as greater than 30 µM, the IC50 [7] is reported as 0.55 ± 0.04 µM and the “fold lower IC50 in Sf9 cells compared with LS180 cells” value ([7]; acetaminophen glucuronidation) is reported as 10 fold. For the same compound, the IC50 [1] was 7.1 ± 0.6 µM, the “fold difference in IC50” value [1] was “over 3.5 fold” and the IC50 [16] was greater than 30 µM. For the same compound, the “concentration up to which not toxic in LS180 cells” value [9] was “up to 10 μM” and the IC50 [11] was 0.59 ± 0.05 µM.

In the case of `CC(=O)c1c(O)c(C)c(O)c(Cc2c(O)c3c(c(C(=O)/C=C/c4ccccc4)c2O)OC(C)(C)C=C3)c1O` [rottlerin], the induction of apoptosis [17] is listed as “did not induce apoptosis”, the induction of apoptosis [18] is listed as “did not induce apoptosis” and the IC50 [6] is listed as greater than 40 µM. For the same compound, the “effect on viability of cells” value [19] was “no effect”, the IC50 [7] was greater than 40 µM and the IC50 [1] was 9 ± 1.2 µM. For the same compound, the “fold difference in IC50” value [1] was “over 3.5 fold”, the IC50 [16] was greater than 40 µM and the IC50 [10] was greater than 40 µM. The induction of apoptosis [20] was “did not induce apoptosis” and the IC50 [11] was greater than 40 µM.
